According to patent publication US20100286154A1, “ANTIHELMINTIC PASTE” (priority 2007, published 2010):

Assay: Paste stability test (storage in glass containers, assay of active ingredients by HPLC)
Format: physicochemical
Details: paste composition of Example 2, glass containers
Description: The paste composition of Example 2 was stored in glass containers at different temperatures for up to 12 months and assay of both active ingredients followed by HPLC analysis at given time points (3-, 6- and 12-months).

O=C(C1CCCCC1)N1CC(=O)N2CCc3ccccc3C2C1 (stereo not drawn) [Praziquantel, 2-(cyclohexylcarbonyl)-1,2,3,6,7,11b-hexahydro-4H-pyrazino[2,1-a]isoquinoline-4-one]
Content in % of start value (5° C., 3 month): 102.20% | Content in % of start value (5° C., 6 month): 103.98% | Content in % of start value (5° C., 12 month): 103.56% | Content in % of start value (25° C., 3 month): 102.52% | Content in % of start value (25° C., 6 month): 101.99% | Content in % of start value (25° C., 12 month): 102.73% | Content in % of start value (30° C., 3 month): 100.63% | Content in % of start value (30° C., 6 month): 102.31% | Content in % of start value (30° C., 12 month): 102.62% | Content in % of start value (40° C., 3 month): 101.36% | Content in % of start value (40° C., 6 month): 102.10% | Content in % of start value (40° C., 12 month): 100.94%
